From paper PMC11562788, “Insights into the Hierarchical Assembly of a Chemically Diverse Peptide Hydrogel Derived from Human Semenogelin I” (ACS Nano, 2024)
Several values for one entry are separate records, joined by “and”; a condition that tells them apart may be missing. Identical values can stand only once. Entries after “also recorded” stand apart in the source; their conditions may differ. Each block holds one compound with its values, some of them ahead of it. Residues, ends and D or L forms follow the SMILES beside them.

Key:
[1] = Hydrogelation and gel appearance by visual inspection; type: physicochemical; settings: for Colloidal stability / phase separation of the hydrogel: visual inspection after hydrogel preparation, pH/pD 8.0, 2.0 mM, ambient temperature
Method: All FTIR measurements were collected on samples where a trifluoroacetate (TFA^–) to chloride ion exchange was performed to eliminate signals from the TFA^– carbonyl moiety in the amide I spectral region (Figure S1). FTIR spectra were collected for P0–P5 in D2O at six pD values (3.0, 5.0, 7.0, 8.0, 9.0, and 10.0) (Figures S2–S7). FTIR analysis for P6–P8 was performed at a pD of 8.0 (Figures S8–S10). The bulk of FTIR studies were performed at pD 8.0, as the optimum pH range for hydrogelation is 7–9 for both SgI38–48[28] and P0.
(§1) All samples were prepared in nonstick Eppendorf tubes (Axygen, Inc.). Prior to the final sample preparation (for all FTIR samples and when otherwise stated), the TFA counteranions present in the peptide sample after HPLC purification were exchanged for chloride using the following protocol: lyophilized peptide was dissolved in deionized D2O (1.0 mL). HCl was added at a molar ratio of 13.7:1 HCl:peptide. For the Phe^CN mutants, the sample was divided into two groups and lyophilized. One sample was then redissolved in H2O (to avoid obscuring the O–D stretches in the nitrile region) and the other in D2O (to avoid overlapping of the O-H bending vibrations in the amide I region) to a final concentration of 2.0 mM, unless otherwise specified. All other peptide samples were redissolved in D2O. The exchange of TFA^– to chloride may be verified by a lack of signal at 1672 cm^–1, seen in the IR spectrum for the deuterium-exchanged TFA salt of P3, where the carbonyl signal from TFA is well separated from the amide I carbonyl high frequency stretch at 1684 cm^–1 (Figure S1). On the day of the peptide sample preparation, D2O was placed in an Eppendorf tube, was then used as background when collecting data points (0 h, 48 h, 1 week, etc.), and was assumed to absorb the same amount of H2O over time as the peptide sample prepared on the same day. The concentration of the peptide solutions was verified with the UV–vis absorbance peak at 280 nm using a molar absorptivity of 2560 M^–1 cm^–1 for all sequences (P0–P7). The pH/pD of the samples was then corrected to 8.0 using small volumes of NaOH and HCl (or NaOD and DCl). After attaining the desired pH/pD, samples were incubated at ambient temperature (ca. 22 °C) and followed over 7 days (or as specified) to allow for hydrogelation.

[2] = SAXS/WAXS of fibrils, elliptical cylinder model fit; type: physicochemical; settings: for Fibril axis ratio / Fibril cross-sectional area / Fibril minor radius (minor semiaxis): SAXS, elliptical cylinder model fit, day 7 at 21 °C; for Fibril axis ratio / Fibril cross-sectional area / Fibril minor radius (minor semiaxis) / Repeated dimension of broad SAXS peak at q = 0.172 Å^–1: pH 8.0; for Repeated dimension of broad SAXS peak at q = 0.172 Å^–1: 7 days at 21 °C; for Repeat distance of sharp SAXS peak at q = 0.305 Å^–1: after 7 days of incubation at 21 °C
Method: Small- and wide-angle X-ray scattering (SAXS/WAXS) measurements were performed on a SAXSLabs Ganesha pinhole instrument (JJ X-ray System Aps) with an X-ray microsource (Xenocs) and a two-dimensional 300k Pilatus detector (Dectris Ltd., Switzerland). The wavelength, λ, used for all scattering experiments was 1.54 Å, and samples were measured at three sample-to-detector distances. All samples (200 μL) were loaded into a 1.5 mm diameter quartz capillary (Hilgenberg GmbH, Malsfeld, Germany), and the time-averaged scattering intensities were analyzed using a python code. The scattering intensity was corrected to an absolute scale by calibration against water. Supramolecular dimensions were extracted from SAXS data by using the SasView software and fitting the scattering curves to an elliptical-cylinder model (www.sasview.org).

[3] = FTIR amide I: β-sheet self-assembly; type: physicochemical; settings: D2O, ambient temperature; for Persistence of the β-sheet structure over time by FTIR: 0 h to 1 week or longer, pH as in the words
Method: as §1
FT IR was performed with a Bruker Vertex 70 spectrometer with a photovoltaic mercury cadmium telluride (MTC) detector. Before the spectral collection, the MCT detector was cooled with liquid nitrogen. A background spectrum (see hydrogel sample preparation above) was collected (6 μL of H2O or D2O), and the collection chamber was purged for 15 min before 6 μL of sample was loaded in between two CaF2 windows and separated by a 50-μm Teflon spacer in a 25-mm diameter demountable liquid cell (Harrick Scientific). After purging again, the IR spectrum was collected with 512 scans, with a resolution of 2 cm^–1, from 900 cm^–1 to 4000 cm^–1 at time t = 0 h, 24 h, 48 h, and 1 week (and sometimes longer) after sample constitution, processed using OPUS spectroscopy software, and plotted with Origin or KaleidaGraph.

[4] = Oscillatory and flow rheology of hydrogels; type: physicochemical; settings: for Change of storage modulus G′ over one week: 2.0 mM, pH 8.0, 24 h against 1 week at 21 °C; for Recovery of initial G′ within 2 min after strain-induced loss of gel character / Time to complete recovery of the initial G′: after flow curve deformation; for Recovery of initial G′ within 2 min after strain-induced loss of gel character / Time to complete recovery of the initial G′ / Strain above which gel character is lost (G″ > G′) / Strain up to which the gel is linearly viscoelastic / Angular frequency up to which G′ and G″ are frequency-independent: hydrogel after 1 week, 25 °C; for Strain above which gel character is lost (G″ > G′) / Strain up to which the gel is linearly viscoelastic: amplitude sweep 0.01–100% strain; for Slope of viscosity against shear rate (shear thinning): flow curve, hydrogel after 1 week at ambient temperature, measured at 25 °C; for Angular frequency up to which G′ and G″ are frequency-independent: frequency sweep 0.1–100 rad/s
Method: Rheology measurements were performed on an Anton Paar Physica MCR 301 instrument using a CP25-1 (diameter of 25 mm, angle of 1°) cone plate. A water trap was installed to prevent sample evaporation, and then, sample, 150–200 μL, was carefully plated on to the rheometer stage with a tipless 1 mL syringe to minimize gel deformation. Measurements were conducted with a […] gap size at a temperature of 25 °C. All rheological measurements were done at a frequency, ω, of 10 rad/s with data collection every 2 s. Samples were left for 1 h at a steady strain sweep, γ, of 0.5% (within the linear viscoelastic regime for all sequences) for the gel samples to recover a steady state fibril network, as observed by a stabilization in the value of G′. Subsequently, frequency sweep (0.1–100 rad/s), strain sweep (γ = 0.01–100%), and flow curve (0.1–50 s^–1) experiments were conducted. A time experiment in the linear viscoelastic regime (10 rad/s, 0.5%) for a 50 min period after the flow curve was used to estimate the recovery time of the hydrogels.

Solubility in water = type: physicochemical; settings: P7 and P8 not tested above 1.0 mM at pH 8
[5] = cited from earlier work
Text: The present study targets a relatively complex 13-residue peptide for which we attempt to uncover the underlying chemical principles behind hydrogelation and correlations between sequence, structure, and bulk mechanical properties. The peptide is derived from the human protein semenogelin I (SgI), which is the main proteinaceous constituent in seminal plasma. SgI is also present in nonreproductive tissues including skeletal muscles, the trachea, and the gastrointestinal tract.[35] We previously reported that a short fragment of SgI forms a pH-responsive gel, similar in properties to the full-l ... || All FTIR measurements were collected on samples where a trifluoroacetate (TFA^–) to chloride ion exchange was performed to eliminate signals from the TFA^– carbonyl moiety in the amide I spectral region (Figure S1). FTIR spectra were collected for P0–P5 in D2O at six pD values (3.0, 5.0, 7.0, 8.0, 9.0, and 10.0) (Figures S2–S7). FTIR analysis for P6–P8 was performed at a pD of 8.0 (Figures S8–S10). The bulk of FTIR studies were performed at pD 8.0, as the optimum pH range for hydrogelati ...

Gel robustness as noticed in handling ([1]; pD 8.0 hydrogels): less stable gel than P0, P2 and P3
Fibril axis ratio ([2]; 2.0 mM): 2.5
Fibril cross-sectional area ([2]; 2.0 mM): 17.7 nm^2
Fibril minor radius (minor semiaxis) ([2]; 2.0 mM): 1.5 nm
Persistence of the β-sheet structure over time by FTIR [3]: is lost over time
Structure (SMILES): CC[C@H](C)[C@H](NC(=O)[C@H](CO)NC(=O)[C@H](Cc1ccccc1)NC(=O)[C@H](CO)NC(=O)CNC(C)=O)C(=O)N[C@@H](CCC(N)=O)C(=O)N[C@@H](Cc1ccc(O)cc1)C(=O)N[C@H](C(=O)N[C@@H](Cc1ccc(O)cc1)C(=O)N[C@@H](Cc1c[nH]cn1)C(=O)N[C@H](C(=O)N[C@@H](CC(=O)O)C(N)=O)C(C)C)[C@@H](C)O [P1] (Ac-GSFSIQYTYHVD-NH2)

Change of storage modulus G′ over one week [4]: modestly increases
Recovery of initial G′ within 2 min after strain-induced loss of gel character [4]: ca. 75%
Time to complete recovery of the initial G′ [4]: 30 min
Strain above which gel character is lost (G″ > G′) [4]: above 10 % strain
Strain up to which the gel is linearly viscoelastic [4]: up to 2 % strain
Slope of viscosity against shear rate (shear thinning) [4]: ca. −1.1
Angular frequency up to which G′ and G″ are frequency-independent [4]: up to 20 rad/s
Repeated dimension of broad SAXS peak at q = 0.172 Å^–1 ([2]; 2.0 mM): 3.7 nm
Fibril axis ratio ([2]; 2.0 mM): 3.5
Fibril cross-sectional area ([2]; 2.0 mM): 35.6 nm^2
Fibril minor radius (minor semiaxis) ([2]; 2.0 mM): 1.8 nm
Structure (SMILES): CC[C@H](C)[C@H](NC(=O)[C@H](CO)NC(=O)[C@H](Cc1ccccc1)NC(=O)[C@H](CO)NC(C)=O)C(=O)N[C@@H](CCC(N)=O)C(=O)N[C@@H](Cc1ccc(O)cc1)C(=O)N[C@H](C(=O)N[C@@H](Cc1ccc(O)cc1)C(=O)N[C@@H](Cc1c[nH]cn1)C(=O)N[C@H](C(=O)N[C@@H](CC(=O)O)C(N)=O)C(C)C)[C@@H](C)O [P2] (Ac-SFSIQYTYHVD-NH2)
G′ of P2 relative to P3 ([4]; after 1 week of incubation): close to an order of magnitude higher than P3

Change of storage modulus G′ over one week [4]: significantly increases
Recovery of initial G′ within 2 min after strain-induced loss of gel character [4]: ca. 60%
Time to complete recovery of the initial G′ [4]: 45 min
Strain above which gel character is lost (G″ > G′) [4]: > 60 % strain
Strain up to which the gel is linearly viscoelastic [4]: ≤ 10 % strain
Slope of viscosity against shear rate (shear thinning) [4]: ca. −1.1
Angular frequency up to which G′ and G″ are frequency-independent [4]: up to 20 rad/s
Repeated dimension of broad SAXS peak at q = 0.172 Å^–1 ([2]; 2.0 mM): 3.7 nm
Fibril axis ratio ([2]; 2.0 mM): 3.2
Fibril cross-sectional area ([2]; 2.0 mM): 32.6 nm^2
Fibril minor radius (minor semiaxis) ([2]; 2.0 mM): 1.8 nm
Structure (SMILES): CC[C@H](C)[C@H](NC(=O)[C@H](CO)NC(=O)[C@H](Cc1ccccc1)NC(C)=O)C(=O)N[C@@H](CCC(N)=O)C(=O)N[C@@H](Cc1ccc(O)cc1)C(=O)N[C@H](C(=O)N[C@@H](Cc1ccc(O)cc1)C(=O)N[C@@H](Cc1c[nH]cn1)C(=O)N[C@H](C(=O)N[C@@H](CC(=O)O)C(N)=O)C(C)C)[C@@H](C)O [P3] (Ac-FSIQYTYHVD-NH2)

Fibril axis ratio ([2]; 2.0 mM): 2.1
Fibril cross-sectional area ([2]; 2.0 mM): 59.4 nm^2
Fibril minor radius (minor semiaxis) ([2]; 2.0 mM): 3.0 nm and 3 nm
Periodic repeat distance from WAXS peak ([2]; WAXS, q = 1.3 Å^–1 (P0–P3) or 1.05 Å^–1 (P4–P6), 2.0 mM, pH 8.0, 21 °C): 6.0 Å
Repeat distance of sharp SAXS peak at q = 0.305 Å^–1 [2]: 2.1 nm
Persistence of the β-sheet structure over time by FTIR [3]: sheet structure is lost within 1 week
Structure (SMILES): CC[C@H](C)[C@H](NC(=O)[C@H](CO)NC(C)=O)C(=O)N[C@@H](CCC(N)=O)C(=O)N[C@@H](Cc1ccc(O)cc1)C(=O)N[C@H](C(=O)N[C@@H](Cc1ccc(O)cc1)C(=O)N[C@@H](Cc1c[nH]cn1)C(=O)N[C@H](C(=O)N[C@@H](CC(=O)O)C(N)=O)C(C)C)[C@@H](C)O [P4] (Ac-SIQYTYHVD-NH2)
Colloidal stability / phase separation of the hydrogel [1]: colloidally unstable and undergoes phase separation

Hydrogel formation ([1]; visual inspection, peptide in water/D2O, pH/pD 8.0, 2.0 mM (P7 1.0 mM), ambient temperature ca. 22 °C, up to 7 days): forms a hydrogel
Fibril axis ratio ([2]; 2.0 mM): 1.9
Fibril cross-sectional area ([2]; 2.0 mM): 57.4 nm^2
Fibril minor radius (minor semiaxis) ([2]; 2.0 mM): 3.1 nm
Repeat distance of sharp SAXS peak at q = 0.305 Å^–1 [2]: 2.1 nm
Structure (SMILES): CC(=O)N[C@@H](CCC(N)=O)C(=O)N[C@@H](Cc1ccc(O)cc1)C(=O)N[C@H](C(=O)N[C@@H](Cc1ccc(O)cc1)C(=O)N[C@@H](Cc1c[nH]cn1)C(=O)N[C@H](C(=O)N[C@@H](CC(=O)O)C(N)=O)C(C)C)[C@@H](C)O [P6] (Ac-QYTYHVD-NH2)
Colloidal stability / phase separation of the hydrogel [1]: colloidally unstable and undergoes phase separation

Solubility in water (in words) (Solubility in water): low solubility
Structure (SMILES): CC(=O)N[C@H](C(=O)N[C@@H](Cc1ccc(O)cc1)C(=O)N[C@@H](Cc1c[nH]cn1)C(=O)N[C@H](C(=O)N[C@@H](CC(=O)O)C(N)=O)C(C)C)[C@@H](C)O [P8] (Ac-TYHVD-NH2)
β-Sheet secondary structure (self-assembly) by FTIR amide I ([3]; pD 8.0, 2.0 mM (P7, P8 and F40FCN 1.0 mM)): no sign of a β-sheet secondary structure; also recorded: unstructured

Solubility in water (in words) (Solubility in water): limited solubility in water
Structure (SMILES): CC[C@H](C)[C@H](NC(=O)[C@H](CO)NC(=O)[C@H](Cc1ccccc1)NC(=O)[C@H](CO)NC(=O)CNC(C)=O)C(=O)N[C@@H](CCC(N)=O)C(=O)N[C@@H](Cc1ccc(O)cc1)C(=O)N[C@H](C(=O)N[C@@H](Cc1ccc(O)cc1)C(=O)N[C@@H](Cc1c[nH]cn1)C(=O)N[C@H](C(N)=O)C(C)C)[C@@H](C)O [SgI38–48, AcNH–GSFSIQYTYHV–CONH2] (Ac-GSFSIQYTYHV-NH2)
Optimum pH range for hydrogelation [5]: 7–9
Concentration at which the peptide self-assembles into a hydrogel network ([5]; physiological conditions): 0.5 % w/v
